Experiments:
[1] = tested on: luciferase in MC38-Luc cells; test: In vitro luciferase gene knockdown; format: cell-based, murine; details: 1 h pretreatment prior to siLUC NP transfection
hXkr8 mRNA = test: qRT-PCR of Xkr8 mRNA in cultured human tumor cells (HT-29, PANC-1); format: cell-based; details: for Xkr8 mRNA expression: 24 h treatment
Experimental: (§1) To examine the effect of different chemotherapeutic agents on the expression level of Xkr8 mRNA, CT26, Panc02, PANC-1 or HT29 cells were treated with various concentrations of FuOXP, DOX or PTX. Twenty-four h later, cells were collected and subjected to qRT-PCR of mXkr8 or hXkr8 as detailed below.
(§2) To examine the impact of ActD treatment on the expression level of Xkr8 mRNA, CT26 or PANC-1 tumor cells were treated with FuOXP (10 μM) for 12 h followed by addition of ActD (2 μM). At 2 or 4 h following ActD treatment, cells were collected and subjected to qRT-PCR of Xkr8 mRNA as described below. In another study, cells were treated with NAC (2.5 mM) for 12 h followed by treatment with FuOXP, DOX or PTX for another 12 h. qRT-PCR of Xkr8 mRNA was then similarly performed.
(§3) Tumor tissues or cells collected from the above experiments were subjected to RNA extraction by TRIzol™. cDNA was generated from the purified RNA using QuantiTect Reverse Transcription Kit (Qiagen, MD, USA) according to the manufacturer's instructions. Quantitative real-time PCR was performed using SYBR Green Mix on a 7900 HT PCR instrument (Applied Biosystems, MA, USA). Relative target mRNA levels were analyzed using delta-delta-Ct calculations and normalized to GAPDH.

mXkr8 mRNA = test: qRT-PCR of Xkr8 mRNA in cultured murine tumor cells (CT26, Panc02); format: cell-based; details: for Xkr8 mRNA expression: 24 h treatment
Experimental: as §1, §2, §3

hXkr8 protein = test: Western blot of hXkr8 protein in HT29 and PANC-1 cells; format: cell-based, human; details: PANC-1 cells; NAC 12 h then drug 12 h
Experimental: Analysis of hXkr8 protein level by Western blot: Cultured HT29 or PANC-1 cells received similar treatments as described above. Cells were then lysed with RIPA lysis buffer (Thermo Fisher Scientific, MA, USA) by gently shaking on ice for 30 min. After centrifugation at 12,300 RPM for 10 min, the supernatants were collected, and the concentrations of proteins were measured using Pierce BCA Protein Assay Kit (ThermoFisher Scientific, MA, USA). The protein samples were denatured by boiling for 5 min and loaded onto 10% SDS-PAGE gel for electrophoresis. The proteins in the gels were subsequently transferred onto PVDF membranes (Bio-Rad, CA, USA). The membranes were then incubated in blocking buffer (5% non-fat dry milk in TBST) for 1 h at RT, followed by incubation with anti-hXkr8 polyclonal antibody (ThermoFisher Scientific, MA, USA) in antibody dilution buffer (5% BSA in TBST, 1/2000 dilution) with gentle agitation overnight at 4° C. After washing with TBST for three times, the membranes were subsequently incubated with the secondary HRP-linked goat anti-rabbit IgG antibody (Cell Signaling Technology, MA, USA) for 1 h at RT. After another three washes with TBST, the membranes were incubated with Pierce™ ECL Western Blotting Substrate (ThermoFisher Scientific, MA, USA) for 1 min. Protein expression was normalized against β-Tubulin expression.

HUVECa and CT26 cells = test: Transwell co-culture transcytosis (HUVECa upper, CT26 lower chamber); format: cell-based; details: endocytosis inhibitor
Experimental: To explore a potential role of transcytosis in tumor targeting, a co-culture experiment with HUVECa and CT26 cells using a Transwell plate was conducted.

CT26 tumor cells = test: Surface PS on CT26 tumor cells and EVs (Annexin V flow); format: cell-based, murine; details: CT26 tumor cells in vitro
Experimental: Effect of Xkr8 knockdown on the PS expression levels of tumor cells and EVs following FuOXP treatment: CT26 cancer cells were first treated with siXkr8 NPs for 72 h and then treated with FuOXP/siXkr8-coloaded NPs for another 24 h. EVs were isolated from culture medium using gradient ultra-centrifugation according to a previously established protocol^48. Briefly, culture medium was collected and centrifuged for 20 min at 1,800 RPM at 4° C. to clear dead cells and cell debris. The supernatant was then transferred to a polycarbonate ultracentrifuge tube and centrifuged at 9,000 RPM for 35 min at 4° C. to collect larger EVs. The supernatant was centrifuged again at 30,000 RPM for 80 min at 4° C. and the pellet was resuspended in 100 μL of PBS for smaller EVs collection. The levels of surface PS on tumor cells and EVs were analyzed by flow using BV421-labeled Annexin V. For detection of EVs by flow cytometry, electronic “Height” (-H) parameter rather than the “Area” (-A) parameter was used to allow optimal signal detection.

For CN(C)CCCN1c2ccccc2Sc2ccc(Cl)cc21 [chlorpromazine], the “efficiency of silence after inhibitor pretreatment” value [1] was “drastically attenuated”.

For CC(=O)N[C@@H](CS)C(=O)O [NAC, N-acetylcysteine], the “effect of pretreatment on Xkr8 mRNA induction by the 3 drugs” value (hXkr8 mRNA; PANC-1 cells, NAC 12 h then drug 12 h) was “partially attenuated”, the “effect of pretreatment on Xkr8 mRNA induction by the 3 drugs” value (mXkr8 mRNA; CT26 cells, NAC 12 h then drug 12 h) was “partially attenuated” and the “effect of pretreatment on Xkr8 protein induction by the 3 drugs” value (hXkr8 protein) was “partially attenuated”.

With O=C(N/N=C/c1ccc(O)c(O)c1)c1cc2ccccc2cc1O [dynasore] the “efficiency of silence after inhibitor pretreatment” value [1] was “drastically attenuated” and the “effect on transcytosis-mediated transfection of CT26 cells” value (HUVECa and CT26 cells) was “significantly inhibited”.

CCCCC[C@@H](O)[C@H]1C(=O)O[C@H](C)[C@@H](O)/C=C/C=C/C=C/C=C/C=C(\C)[C@@H](O)C[C@H](O)C[C@H](O)C[C@H](O)C[C@H](O)C[C@H](O)C[C@@H]1O [filipin] was tested, and the “efficiency of silence after inhibitor pretreatment” value [1] was “drastically attenuated”.

COc1cccc2c1C(=O)c1c(O)c3c(c(O)c1C2=O)C[C@@](O)(C(=O)CO)C[C@@H]3O[C@H]1C[C@H](N)[C@H](O)[C@H](C)O1 [DOX, doxorubicin] was tested, and the “Xkr8 mRNA expression” value (hXkr8 mRNA; HT-29 cells) was “Induction”, the “Xkr8 mRNA expression” value (hXkr8 mRNA; PANC-1 cells) was “Induction” and the “Xkr8 mRNA expression” value (mXkr8 mRNA; CT26 cells) was “Induction”. For the same compound, the “Xkr8 mRNA expression” value (mXkr8 mRNA; Panc02 cells) was “Induction”.

In the case of N=C(N)NC(=O)c1nc(Cl)c(N)nc1N [amiloride], the “efficiency of silence after inhibitor pretreatment” value [1] was “drastically attenuated”.

In the case of “siXkr8: Murine Xkr8 siRNA, Seq ID No 1 and 2, siRNA ID 164623 (chain 1 GGCACAAAUUUUAUGCCUG; chain 2 CAGGCAUAAAAUUUGUGCC; RNA, backbone not given here; further chemistry not fully specified; listed as Mus musculus)”, the “level of surface PS (Annexin V+ cells)” value (CT26 tumor cells) was “almost abolished”.

CC(=O)O[C@H]1C(=O)[C@@]2(C)[C@H]([C@H](OC(=O)c3ccccc3)[C@]3(O)C[C@H](OC(=O)[C@H](O)[C@@H](NC(=O)c4ccccc4)c4ccccc4)C(C)=C1C3(C)C)[C@]1(OC(C)=O)CO[C@@H]1C[C@@H]2O [PTX, paclitaxel] was tested, and the “Xkr8 mRNA expression” value (hXkr8 mRNA; HT-29 cells) was “Induction”, the “Xkr8 mRNA expression” value (hXkr8 mRNA; PANC-1 cells) was “Induction” and the “Xkr8 mRNA expression” value (mXkr8 mRNA; CT26 cells) was “Induction”. For the same compound, the “Xkr8 mRNA expression” value (mXkr8 mRNA; Panc02 cells) was “Induction”.

In the case of C=C1[C@@H](C)[C@H]2[C@H](Cc3ccccc3)NC(=O)[C@]23[C@H](OC(C)=O)/C=C/[C@@](C)(O)C(=O)[C@@H](C)C/C=C/[C@H]3[C@@H]1O [cytochalasin D], the “efficiency of silence after inhibitor pretreatment” value [1] was “drastically attenuated”.

— patent US20250084416A1, “TARGETING OF XKR8 IN THERAPIES” (University of Pittsburgh - Of the Commonwealth System of …, priority 2022, published 2025)
